# In US11053204B2, “Pyrimidinyloxy benzene derivatives as herbicides” (FMC Corporation, priority 2015, dated 2021):
# Tests used:
# Assay in all cases: Test C postemergence, plant response rating
# Type in all cases: in vivo
# [1] = test system: crabgrass, large (large crabgrass, Digitaria sanguinalis); settings: for Crabgrass, Large plant response rating: scale 0 to 100 (0 no effect, 100 complete control)
# Method in brief: (§1)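 Preemergence: seeds sown in loam–sand blend or silt loam and sprayed with test chemicals in a non-phytotoxic surfactant-containing solvent. Postemergence: potted plants at 2–18 cm (1–4-leaf stage) sprayed with the same formulation. After 13–15 d in greenhouse, visual rating versus controls on 0 (no effect) to 100 (complete control) scale.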
# [2] = test system: oilseed rape (Brassica napus); settings: for Oilseed Rape plant response rating: scale 0 to 100 (0 no effect, 100 complete control)
# Method in brief: as §1
# corn (Zea mays) = settings: for Corn plant response rating: scale 0 to 100 (0 no effect, 100 complete control)
# Method in brief: as §1
# [3] = test system: waterhemp (common waterhemp, Amaranthus rudis)
# Method in brief: as §1
# [4] = test system: velvetleaf (Abutilon theophrasti)
# Method in brief: as §1
# [5] = test system: ragweed (common ragweed, Ambrosia elatior); settings: for Ragweed plant response rating: scale 0 to 100 (0 no effect, 100 complete control)
# Method in brief: as §1
# [6] = test system: barnyardgrass (Echinochloa crus-galli); settings: for Plant response rating, Barnyardgrass: scale 0 to 100; for Barnyardgrass plant response rating: scale 0 to 100 (0 no effect, 100 complete control)
# Method in brief: as §1
# [7] = test system: lambsquarters (Chenopodium album); settings: for Lambsquarters plant response rating: scale 0 to 100 (0 no effect, 100 complete control)
# Method in brief: as §1
# soybean (Glycine max) = settings: for Soybean plant response rating: scale 0 to 100 (0 no effect, 100 complete control)
# Method in brief: as §1
# kochia (Kochia scoparia) = settings: for Kochia plant response rating: scale 0 to 100 (0 no effect, 100 complete control)
# Method in brief: as §1
# [8] = test system: blackgrass (Alopecurus myosuroides); settings: for Plant response rating, Blackgrass: scale 0 to 100; for Blackgrass plant response rating: scale 0 to 100 (0 no effect, 100 complete control)
# Method in brief: as §1
# [9] = test system: oat, wild (wild oat Avena fatua); settings: for Oat, Wild plant response rating: scale 0 to 100 (0 no effect, 100 complete control)
# Method in brief: as §1
# [10] = test system: ryegrass, Italian (Italian ryegrass, Lolium multiflorum); settings: for Ryegrass, Italian plant response rating: scale 0 to 100 (0 no effect, 100 complete control)
# Method in brief: as §1
# [11] = test system: galium (catchweed bedstraw, Galium aparine); settings: for Galium plant response rating: scale 0 to 100 (0 no effect, 100 complete control)
# Method in brief: as §1
# [12] = test system: nutsedge, yellow (yellow nutsedge, Cyperus esculentus); settings: for Nutsedge, Yellow plant response rating: scale 0 to 100 (0 no effect, 100 complete control)
# Method in brief: as §1
# [13] = test system: wheat (winter wheat, Triticum aestivum)
# Method in brief: as §1
# [14] = 125 g ai/ha, scale 0 to 100 (0 no effect, 100 complete control)
compound,measurement,setting,value
O=C(CCC(F)(F)C(F)(F)F)c1c(Br)cccc1Oc1ncc(Cl)cn1 [Compound 110],"Plant response rating, Crabgrass, Large","[1]; 16 g ai/ha, scale of 0 to 100",10
same,"Plant response rating, Crabgrass, Large","[1]; 31 g ai/ha, scale 0 to 100",20
same,"Crabgrass, Large plant response rating",[1]; 62 g ai/ha,25
same,"Crabgrass, Large plant response rating",[1]; 125 g ai/ha,60
same,"Plant response rating, Oilseed Rape","[2]; 16 g ai/ha, scale of 0 to 100",60
same,"Plant response rating, Oilseed Rape","[2]; 31 g ai/ha, scale 0 to 100",60
same,Oilseed Rape plant response rating,[2]; 62 g ai/ha,85
same,Oilseed Rape plant response rating,[2]; 125 g ai/ha,95
same,"Plant response rating, Corn","corn (Zea mays); 16 g ai/ha, scale of 0 to 100",10
same,"Plant response rating, Corn","corn (Zea mays); 31 g ai/ha, scale 0 to 100",20
same,Corn plant response rating,corn (Zea mays); 62 g ai/ha,20
same,Corn plant response rating,corn (Zea mays); 125 g ai/ha,15
same,"Plant response rating, Waterhemp","[3]; 16 g ai/ha, scale of 0 to 100",85
same,"Plant response rating, Waterhemp","[3]; 31 g ai/ha, scale 0 to 100",90
same,Waterhemp plant response rating,[3]; [14],95
same,"Plant response rating, Velvetleaf","[4]; 16 g ai/ha, scale of 0 to 100",50
same,"Plant response rating, Velvetleaf","[4]; 31 g ai/ha, scale 0 to 100",40
same,Velvetleaf plant response rating,[4]; [14],75
same,"Plant response rating, Ragweed","[5]; 16 g ai/ha, scale of 0 to 100",40
same,"Plant response rating, Ragweed","[5]; 31 g ai/ha, scale 0 to 100",50
same,Ragweed plant response rating,[5]; 62 g ai/ha,60
same,Ragweed plant response rating,[5]; 125 g ai/ha,60
same,"Plant response rating, Barnyardgrass",[6]; 16 g ai/ha,10
same,"Plant response rating, Barnyardgrass",[6]; 31 g ai/ha,10
same,Barnyardgrass plant response rating,[6]; 62 g ai/ha,20
same,Barnyardgrass plant response rating,[6]; 125 g ai/ha,30
same,"Plant response rating, Lambsquarters","[7]; 16 g ai/ha, scale of 0 to 100",75
same,"Plant response rating, Lambsquarters","[7]; 31 g ai/ha, scale 0 to 100",90
same,Lambsquarters plant response rating,[7]; 62 g ai/ha,95
same,Lambsquarters plant response rating,[7]; 125 g ai/ha,98
same,"Plant response rating, Soybean","soybean (Glycine max); 16 g ai/ha, scale of 0 to 100",40
same,"Plant response rating, Soybean","soybean (Glycine max); 31 g ai/ha, scale 0 to 100",40
same,Soybean plant response rating,soybean (Glycine max); 62 g ai/ha,50
same,Soybean plant response rating,soybean (Glycine max); 125 g ai/ha,35
same,"Plant response rating, Kochia","kochia (Kochia scoparia); 16 g ai/ha, scale of 0 to 100",95
same,"Plant response rating, Kochia","kochia (Kochia scoparia); 31 g ai/ha, scale 0 to 100",100
same,Kochia plant response rating,kochia (Kochia scoparia); 62 g ai/ha,100
same,Kochia plant response rating,kochia (Kochia scoparia); 125 g ai/ha,100
same,"Plant response rating, Blackgrass",[8]; 16 g ai/ha,10
same,"Plant response rating, Blackgrass",[8]; 31 g ai/ha,15
same,Blackgrass plant response rating,[8]; 62 g ai/ha,20
same,Blackgrass plant response rating,[8]; 125 g ai/ha,25
same,"Plant response rating, Oat, Wild","[9]; 16 g ai/ha, scale of 0 to 100",20
same,"Plant response rating, Oat, Wild","[9]; 31 g ai/ha, scale 0 to 100",30
same,"Oat, Wild plant response rating",[9]; 62 g ai/ha,45
same,"Oat, Wild plant response rating",[9]; 125 g ai/ha,55
same,"Plant response rating, Ryegrass, Italian","[10]; 16 g ai/ha, scale of 0 to 100",5
same,"Plant response rating, Ryegrass, Italian","[10]; 31 g ai/ha, scale 0 to 100",10
same,"Ryegrass, Italian plant response rating",[10]; 62 g ai/ha,15
same,"Ryegrass, Italian plant response rating",[10]; 125 g ai/ha,20
same,"Plant response rating, Galium","[11]; 16 g ai/ha, scale of 0 to 100",60
same,"Plant response rating, Galium","[11]; 31 g ai/ha, scale 0 to 100",75
same,Galium plant response rating,[11]; 62 g ai/ha,75
same,Galium plant response rating,[11]; 125 g ai/ha,90
same,"Plant response rating, Nutsedge, Yellow","[12]; 16 g ai/ha, scale of 0 to 100",0
same,"Plant response rating, Nutsedge, Yellow","[12]; 31 g ai/ha, scale 0 to 100",5
same,"Nutsedge, Yellow plant response rating",[12]; 62 g ai/ha,5
same,"Nutsedge, Yellow plant response rating",[12]; 125 g ai/ha,5
same,"Plant response rating, Wheat","[13]; 16 g ai/ha, scale of 0 to 100",5
same,"Plant response rating, Wheat","[13]; 31 g ai/ha, scale 0 to 100",5
same,Wheat plant response rating,[13]; [14],15
